Results from US10125365B2, “Micro-RNAs and compositions comprising same for the treatment and diagnosis of serotonin-, adrenalin-, noradrenalin-, glutamate-, and corticotropin-releasing hormone- associated medical conditions” (Yeda Research and Development Co. Ltd., priority 2014, dated 2018).

What was measured:
miR-135a = test: Real time PCR of miR-135a in raphe nucleus after antidepressant treatment; type: in vivo, mouse; settings: mice, 20 mg/kg i.p., acute or chronic administration
Description: Mice received i.p. injection of tricyclic-Imipramine, or SSRI-Fluoxetine, or NRI-Reboxetine (20 mg/kg in saline) or saline.
Blunted 14G syringes were used to extract the RN region from 3 mm slices removed from the matrix.
(§1) For behavioral testing, mice were injected with 20 mg/kg SSRI i.p. 30 minutes prior to the test.
Samples were then analyzed using SYBR® Green

mice [1] = test: Tail suspension test; type: in vivo, mouse; settings: miR135b KD and control KD mice
Description: The tail suspension test was performed in the TSE Tail Suspension Monitor (TSE Systems, Bad Homburg, Germany). Each mouse was taped by the tip of its tail, and suspended from the force sensor for 10 minutes. Time spent immobile and time spent struggling were calculated and recorded by the software based on pre-set thresholds.

miR-135b = test: Real time PCR of miR-135b in raphe nucleus after antidepressant treatment; settings: mice, 20 mg/kg i.p., acute or chronic administration
mice [2] = test: Social avoidance test after chronic social defeat; type: in vivo, mouse; settings: mice exposed to social defeat, chronic treatment vs saline
Description: Mice were subjected to a social defeat protocol as previously described (Elliott et al., 2010). Briefly, mice were placed in a home cage of an aggressive ICR mouse where they physically interacted for five minutes. […] Perforated clear Plexiglas dividers were then placed between the animals and the mice remained in the same cage for 24 hours to allow sensory contact. The procedure was then repeated with an unfamiliar ICR mouse for 10 consecutive days.
as §1
Social avoidance test: In the social avoidance test, mice were placed in a 15 cm×35 cm arena with a small 15 cm×8 cm neighboring chamber separated by a divider with small open slits allowing full sensory contact. The tested mice were allowed to habituate to the arena for three minutes, and then an unfamiliar ICR mouse was placed in the neighboring chamber for another three minutes. Time spent near the divider was quantified using video tracking by Ethovision software (Noldus, Wageningen, Netherlands). Interaction ratio was calculated by dividing the time the mice spent in a defined area near the unfamiliar ICR to the time the mice spent in the same area during habitation, and multiplied by 100.

miR-19a/b = miR-19a/b levels in prefrontal cortex after Reboxetine; type: in vivo, mouse; settings: mice
From the text: These animals will be also tested for anxiety like behavior, locomotor activity and memory performance. Furthermore, the levels of expression of miR-19a and miR-19b are examined in different regions of interest (E.G the hippocampus, amygdala and forebrain) following an acute and chronic systemic treatment with the Noradrenaline reuptake inhibitor Reboxetine in WT mice.
The physiological link between miRNA-19 and Adrb1 was studied by assessing the level of miR-19a/b in the prefrontal cortex (PFC) of mice that were injected with Reboxetine, a noradrenalin reuptake inhibitor (NRI), either acutely or chronically (FIGS. 12A-D).

Slc6a4 3′UTR = test: Luciferase reporter assay, Slc6a4 3′UTR; type: cell-based, mouse; settings: HEK293T cells, miR over-expressing vector vs empty vector
Description: (§2) 3′UTR sequences of Slc6a4, Htr1a, MaoA and Tph2 were PCR amplified from mouse genomic DNA, or total brain cDNA. 3′UTR PCR fragments were ligated into pGEM-T easy vector (Promega) according to the manufacturer's guidelines, and further subcloned into a single NotI site at the 3′ end of luciferase in the Psicheck2 reporter plasmid (Promega). […] Cloning orientation was verified by diagnostic cuts and by sequencing.
(§3) HEK293T cells were grown on poly-L-lysine in 48-well format to a 70-85% confluence and transfected using Polyethyleneimine with the following plasmids: 5 ng of Psicheck2-3′UTR plasmid and 215 ng of over-expressing vector for a specific miRNA, or empty-miR-vec over-expression plasmids. 24 hours following transfection cells were lysed and luciferase reporters activity were assayed as previously described [Chen A. et al. Mol Endocrinol (2005) 19: 441-58]. Renilla luciferase values were normalized to control firefly luciferase levels (transcribed from the same vector but not affected by 3′UTR tested) and averaged across six well repetitions per condition.
3′ UTRs sequences of Slc6a4 and Htr1a were PCR amplified from mouse genomic DNA. 3′UTRs PCR fragments were ligated into pGEM-T easy vector (Promega) according to the manufacturer's guidelines, and further sub-cloned into a single NotI site at the 3′ end of luciferase in the psiCHECK-2 reporter plasmid (Promega). […]

Htr1a 3′UTR = test: Luciferase reporter assay, Htr1a 3′UTR; type: cell-based, mouse; settings: for repression of Htr1a 3′UTR (luciferase): HEK293T cells, miR over-expressing vector vs empty vector; for seed match through which Htr1a 3′UTR is repressed: Htr1a miR-135 seed matches mutated individually or both
Description: as §2, §3
3′UTR sequence of Htr1a was PCR amplified from mouse genomic DNA. 3′UTR PCR fragments were ligated into pGEM-T easy vector (Promega) according to the manufacturer's guidelines, and further subcloned into a single NotI site at the 3′ end of luciferase in the Psicheck2 reporter plasmid (Promega). Cloning orientation was verified by diagnostic cuts and by sequencing.
as §3, with “plasmids:” for “plasmids: 5 ng of”, “Psicheck2-3′UTR plasmid, pre-mmu-miR-182 over-expression in pEGFP” for “Psicheck2-3′UTR”, “plasmid” for “plasmid and 215 ng of over-expressing vector for a specific miRNA,”, “pEGFP plasmid alone (clontech).” for “empty-miR-vec over-expression plasmids.”
3′ UTRs sequences of Slc6a4 and Htr1a were PCR amplified from mouse genomic DNA. 3′UTRs PCR fragments were ligated into pGEM-T easy vector (Promega) according to the manufacturer's guidelines, and further sub-cloned into a single NotI site at the 3′ end of luciferase in the psiCHECK-2 reporter plasmid (Promega). […] Cloning orientation was verified by diagnostic cuts and sequencing.
Twenty-four hours following transfection cells were lysed and luciferase reporter activities were assayed as previously described (Kuperman et al., 2011). […]

Row | Compound | miR-135a expression levels in the RN (miR-135a) | repression of Slc6a4 3′UTR (luciferase) (Slc6a4 3′UTR) | repression of Htr1a 3′UTR (luciferase) (Htr1a 3′UTR) | seed match through which Htr1a 3′UTR is repressed (Htr1a 3′UTR) | further results
1 | CNCCC(Oc1ccc(C(F)(F)F)cc1)c1ccccc1 (stereo not drawn) [Fluoxetine] | robust increase |  |  |  | immobility time, tail suspension test, treated vs basal (mice [1]): decrease in immobility time
2 | CN(C)CCCN1c2ccccc2CCc2ccccc21 [Imipramine] |  |  |  |  | miR-135b expression levels in the RN (miR-135b): increased; miR-135a expression levels in the RN (miR-135a; 20 mg/kg): increased; miR-135a expression levels in the RN (miR-135a; listed as imipramine, 20 mg/kg): significantly increased; social avoidance (interaction ratio) (mice [2]): not those who received imipramine developed social avoidance
3 | CCOc1ccccc1OC(c1ccccc1)C1CNCCO1 (stereo not drawn) [Reboxetine] | no differences |  |  |  | miR-19 a/b levels in the PFC, acute administration (miR-19a/b; acute): down regulated; miR-19 a/b levels in the PFC, chronic administration (miR-19a/b; chronic): upregulated
4 | miR-135a: mature miR-135a, Accession No. MIMAT0000428 (SEQ ID NO: 61); tested via overexpressing vector (SEQ ID NO: 210) (UAUGGCUUUUUAUUCCUAUGUGA; listed as Homo sapiens) |  | approximately 30% | approximately 30% | via the distal and not the proximal seed match | 
5 | miR-135b: mature miR-135b, Accession No. MIMAT0000758 (SEQ ID NO: 62); tested via overexpressing vector (SEQ ID NO: 211) (UAUGGCUUUUCAUUCCUAUGUGA; listed as Homo sapiens) |  | approximately 50% | approximately 50% | via both predicted sites | 
